Reference: US12139481B2, “Compositions comprising macrocycle derivatives incorporating bridged macrocycles and methods of producing and using same” (Southwestern Oklahoma State University, priority 2015, dated 2024)
Several values for one entry are separate records, joined by “and”; a condition that tells them apart may be missing. Equal values may be shown once. Read-outs that look alike come from different tables or passages of the source.

Tested on: Cryptococcus neoformans ATCC 90113
Test: Antimicrobial microdilution assay against Cryptococcus neoformans (modified CLSI/NCCLS, optical density)
Format: cell-based
Settings: for X more potent than Amphotericin B: C. neoformans, ratio of molar IC50 to Amphotericin B
Experimental: Summary: Various macrocyclic derivatives constructed in accordance with the presently disclosed and/or claimed inventive concept(s) were screened in vitro against Cryptococcus neoformans ATCC 90113 using a microdilution assay. The minimum fungicidal concentration (MFC), the lowest test concentration that kills the organism, was determined in broth media.
Antimicrobial assay: Cryptococcus neoformans ATCC 90113 were obtained from the American Type Culture Collection (Manassas, VA.). The susceptibility testing was performed using a modified version of the CLSI (formerly NCCLS) methods (see below), and optical density was used to monitor growth. Samples were serially diluted in 20% DMSO/saline and transferred in duplicate to 96-well flat bottom microplates. Microbial inocula were prepared by correcting the OD630 of cell/spore suspensions in incubation broth RPMI at pH 6.0 to afford final desired target inocula. Amphotericin B (“AMB;” ICN Biomedicals, OH) was used as drug control. The organism concentration was read at 630 nm using the Biotek Powerwave XS plate reader (Bio-Tek instruments, VT) prior to and after incubation. Minimum fungicidal concentrations were determined by removing 5 μL from each clear well, transferring to agar, and incubating until growth was seen. The MFC/MBC is defined as the lowest test concentration that kids the organism (allows no growth on agar).
References for NCCLS methods referenced above: 1 NCCLS. Reference method for broth dilution antifungal susceptibility testing of yeasts, Vol. 22. Approved standard, 2nd ed. Wayne: National Committee for Clinical Laboratory Standards; 2002: 1-51. 2 NCCLS. Reference method for broth dilution antifungal susceptibility testing of conidium forming filamentous fungi, Vol. 18. Proposed standard M38-P. Wayne: National Committee for Clinical Laboratory Standards; 1998: 1-39. 3 NCCLS. Methods for dilution antimicrobial susceptibility tests for bacteria that grow aerobically, Vol. 20. NCCLS Document M7-A5. Wayne: National Committee for Clinical Laboratory Standards; 2000: 1-58.
The term “IC50” as used herein will be understood to refer to a test concentration in mol/L that affords 50% inhibition of the microbe relative to negative and positive controls. […] The abbreviation “MFC” as used herein will be understood to refer to a minimum fungicidal concentration, or the lowest test concentration in mol/L that kills the organism. All IC50s are calculated using the XLfit® fit curve fitting software (ID Business Solutions Ltd, Guildford, Surrey, UK).
General Experimental Procedures. All organisms were obtained from the American Type Culture Collection (Manassas, VA) and include the fungi Candida albicans ATCC 90028, C. glabrata ATCC 90030, C. krusei ATCC 6258, and Cryptococcus neoformans ATCC 90113, and the bacteria Staphylococcus aureus ATCC 29213 and methicillin-resistant S. aureus ATCC 33591 (MRS). All organisms were tested using modified versions of the CLSI (formerly NCCLS) methods. For all organisms, optical density was used to monitor growth (NCCLS, Reference Method for Broth Dilution Antifungal Susceptibility Testing of Yeasts; Approved Standard M27-A2. National Committee on Clinical Laboratory Standards, 2002 22 (15); and NCCLS, Methods for Dilution Antimicrobial Susceptibility Tests for Bacteria that Grow Aerobically; Approved Standard, Seventh Edition M7-A7. National Committee on Clinical Laboratory Standards, 2006. 26(2)).
Samples (dissolved in DMSO) were serially-diluted in 20% DMSO/saline and transferred (10 μL) in duplicate to 96 well flat bottom microplates.

[1] = in vitro, C. neoformans ATCC 90113
[2] = in vitro, C. neoformans ATCC 90113, read-out: C. neoformans IC50 (mol/L)

| Molecule | X more potent than Amphotericin B | C. neoformans IC50 [1] | IC50 [2] | IC50 (read-out: IC50 against C. neoformans) |
| --- | --- | --- | --- | --- |
| CC(=O)[O-].CN1CCCN2CCN(CCCN(Cc3ccccc3)CC2)CC1.F[P-](F)(F)(F)(F)F.[Co+2] [TRH16, [Co(Bn1Me1Bcyclam)(OAc)]PF6] | 0.02 | 9.190 µg/mL | 15.5 µM | – |
| [Zn2(m-CB-Homocyclens)(OAc)0.5][PF6]3.5 [CDG037] | 0.18 | 1.620 µg/mL | 1.32 µM | – |
| c1ccc2[nH]c(CN3CCNCCN4CCN(CC4)CC3)nc2c1 [SJA219, SB-BI-cyclen] | 0.01 | 5.780 µg/mL | 17.6 µM | – |
| c1cc(CN2CCNCCCN3CCN(CC3)CC2)cc(CN2CCNCCCN3CCN(CC3)CC2)c1 [OB46, m-SB-Homocyclens] | 0.03 | 4.850 µg/mL | 9.21 µM | – |
| C1CNCCN2CCCNCCN(C1)CCC2.O.O.O.[Cl-].[Cl-].[Cl-].[Mn+3] [SLK37, Mn(H2PBCyclam)Cl3•3H2O] | 0.06 | 1.780 µg/mL | 3.91 µM | – |
| CC(=O)[O-].CC(=O)[O-].F[P-](F)(F)(F)(F)F.F[P-](F)(F)(F)(F)F.O.O.O.O.O.[Cu+2].[Cu+2].c1cc(CN2CCCN3CCNCCCN(CC3)CC2)ccc1CN1CCCN2CCNCCCN(CC2)CC1 [TJH416B, [Cu2(H2-p-CB-cyclams)(OAc)2][PF6]2•5H2O] | 0.09 | 3.030 µg/mL | 2.57 µM | – |
| [Zn(Me1-SB-Cyclam)(C2H3O2)]PF6 [DLM32] | 0.01 | 17.280 µg/mL | 33.9 µM | – |
| CN1CCN2CCN(CC1)CCN(Cc1ccccn1)CC2.[Cl-].[Cl-].[Mn+2] [KRW37, [Mn(pic1Me1-CB-Cyclen)Cl]Cl] | 0.03 | 3.076 µg/mL | 7.17 µM | – |
| CN1CCN2CCN(C)CCN(CC1)CC2.F[P-](F)(F)(F)(F)F.[Cl-].[Cl-].[Co+3] [DT06#2, [Co(Bcyclen)Cl2]PF6] | 0.04 | 3.390 µg/mL | 6.78 µM | – |
| C1CNCCN2CCCNCCN(C1)CCC2.CC(=O)[O-].F[P-](F)(F)(F)(F)F.F[P-](F)(F)(F)(F)F.F[P-](F)(F)(F)(F)F.[Cu+2].[NH4+].[NH4+] [SLK40B, [Cu(H2PBCyclam)(OAc)]PF6•2NH4PF6] | 0.03 | 6.930 µg/mL | 8.31 µM | – |
| [Fe(Py-SB-Cyclam)Cl]PF6 [ADS18C] | 0.01 | 18.540 µg/mL | 33.5 µM | – |
| [Cu(Bn2PBCyclen)(C2H3O2)0.4][PF6]1.6 [AW040] | 0.02 | 7.050 µg/mL | 9.91 µM | – |
| [Ni2(m-SB-cyclam-cyclen)(OAc)][PF6]3 [CMB033] | 0.16 | 1.710 µg/mL | 1.5 µM | – |
| C1CN2CCNCCN(CCN1)CC2.CC(=O)[O-].F[P-](F)(F)(F)(F)F.[Co+2] [ANC27A, [Co(H2Bcyclen)(OAc)]PF6] | 0.02 | 5.030 µg/mL | 10.9 µM | – |
| CC(=O)[O-].CC(=O)[O-].CN1CCCN2CCN(CCCN(Cc3ccc(CN4CCCN5CCN(C)CCCN(CC5)CC4)cc3)CC2)CC1.F[P-](F)(F)(F)(F)F.F[P-](F)(F)(F)(F)F.[Co+2].[Co+2] [KS40, [Co2(p-CB-cyclams)(OAc)2](PF6)2] | 13 and 13.21 | 0.020 µg/mL | ≤ 0.018 µM | < 0.018 µM |
| Ni(Py-SB-Cyclam)Cl2•3H2O [ADS20] | 0.01 | 18.590 µg/mL | 37.1 µM | – |
| CN1CCN2CCN(CC1)CCN(Cc1nc3ccccc3[nH]1)CC2 [SJA220, CB-BI-cyclen] | 0.02 | 5.160 µg/mL | 15.1 µM | – |
| [Cu2(m-SB-cyclam-cyclen)(OAc)][PF6]3•2H2O [CMB034] | 0.35 | ≤ 0.800 µg/mL | 0.676 µM | – |
| [Co2(p-CB-Homocyclens)(OAc)2][PF6]2 [TJH379A] | 0.32 | ≤ 0.800 µg/mL | 0.74 µM | – |
| [Ni2(p-SB-cyclam-cyclen)(OAc)][PF6]3•H2O [CMB017A] | 0.06 | 4.940 µg/mL | 4.27 µM | – |
| CC(=O)[O-].CN1CCN2CCN(CC1)CCN(Cc1ccccc1)CC2.F[P-](F)(F)(F)(F)F.F[P-](F)(F)(F)(F)F.[Co+3] [TRH15, [Co(Bn1Me1Bcyclen)(OAc)][PF6]2] | 0.21 | ≤ 0.800 µg/mL | 1.13 µM | – |
| CN1CCCN2CCN(C)CCCN(CC1)CC2.F[P-](F)(F)(F)(F)F.[Cl-].[Cl-].[Co+3] [SAH06#2, [Co(Bcyclam)Cl2]PF6] | 0.01 | 19.220 µg/mL | 36.3 µM | – |
| CN1CCCN2CCN(CCCN(Cc3ccc(CN4CCCN5CCN(C)CCCN(CC5)CC4)cc3)CC2)CC1 [KS23, p-CB-cyclams] | 0.02 | 8.200 µg/mL | 14.1 µM | – |
| CC(=O)[O-].CC(=O)[O-].CN1CCN2CCN(CC1)CCN(Cc1ccc(CN3CCN4CCN(C)CCN(CC4)CC3)cc1)CC2.F[P-](F)(F)(F)(F)F.F[P-](F)(F)(F)(F)F.[Cu+2].[Cu+2] [JAV06, [Cu2(p-CB-Cyclens)(OAc)2][PF6]2] | 0.02 | 10.900 µg/mL | 10.3 µM | – |
| [Cu(dcp1-SB-cyclen)(OAc)]PF6 [OB105] | 0.08 | 2.190 µg/mL | 3.1 µM | – |
| m-CB-cyclam-cyclen [DGJ036] | 0.02 | 5.800 µg/mL | 10.5 µM | – |
| CN1CCN2CCN(CC1)CCN(Cc1nc3ccccc3[nH]1)CC2.[Cl-].[Cl-].[Mn+2] [SJA227, [Mn(CB-BI-cyclen)(Cl)2]] | 0.04 | 1.930 µg/mL | 5.63 µM | – |
